Laboratory results: the supplement of paper PMC11997997

Assays:
[1] = tested on: murine bone marrow-derived macrophages; test: area under cytotoxicity dose-response curve (AUC (% cytotoxicity x dose, relative)); higher = more cytotoxic; conditions: duration: 6 days; dose range: 0.13-80 uM, 8 points
In short: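 Cytotoxicity is expressed as the area under the dose–response curve from GraphPad Prism version 10. To obtain it, primary murine bone marrow-derived macrophages were incubated for 6 days at 37 °C in 5% CO2 across final concentrations of 80–0.13 μM. Viability came from CellTiter-Glo luminescence, and percent cytotoxicity was normalised to vehicle and positive control wells.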

[2] = tested on: Mycobacterium tuberculosis CDC1551 (intracellular, in murine BMDM); test: area under intracellular growth-inhibition dose-response curve (AUC (% inhibition x dose, relative)); higher = more potent; conditions: duration: 6 days; dose range: 0.13-80 uM, 8 points
In short: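 In 384-well opaque plates, primary murine bone marrow-derived macrophages were infected with luciferase-expressing M. tuberculosis CDC1551 (multiplicity of infection 1, 1 h) 24 h after seeding, then treated for 6 days across final concentrations of 80–0.13 μM. Growth was measured by Bright-Glo luciferin assay, normalised to a reference drug control and the lowest-concentration wells. The reported value is the area under the growth-inhibition dose–response curve from GraphPad Prism.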

Row | SMILES | area under cytotoxicity dose-response curve [1] | area under intracellular growth-inhibition dose-response curve [2]
1 | Cc1cccc(/C=N/NC(=O)c2ccncc2)n1 | 14 | 269
2 | CN1CCN(c2c(F)cc3c(=O)c(C(=O)[O-])cn4c3c2OCN4C)CC1 | 18.2 | 187
3 | Cc1ccc(-[n+]2c(-c3ccc(Br)cc3)cn3c2CCc2ccc4cccnc4c2-3)cc1.[Br-] | 29 | 96.2
4 | CCOC(=O)C(CC)(CC)/C(C)=N/NC(=O)CC#N | 20 | 19.5
5 | CC(=O)N1CCN(S(=O)(=O)c2cccc(C(=O)Nc3ccccc3N3CCCCC3)c2)CC1 | 21.9 | < 0
6 | COCCNc1c(-c2ccc(OC)cc2)nc2ccc(Cl)cn12 | 32.9 | 87.8
7 | O=C(Nc1ccc([N+](=O)[O-])cc1Cl)c1cc(Cl)ccc1O | 108 | 151
8 | Cc1ccc(OCCCC(=O)Nc2ccc(S(=O)(=O)N3CCOCC3)cc2)cc1 | 3.26 | 53.8
9 | CCCCN1CC(COc2ccccc2)OC1=O (configuration not stated) | < 0 | 195
10 | C=C1C(=O)O[C@@H]2C[C@@H](C)[C@@H]3C=CC(=O)[C@@]3(C)[C@@H](OC(C)=O)[C@H]12 | 118 | 46.3
11 | CC(=NNC(=O)c1ccncc1)c1cccc(Cl)c1 | < 0 | 258
12 | CCCc1nnc(NC(=S)Nc2ccccc2)s1 | < 0 | 213
13 | Cc1ccc(C(C)C)c(OCc2n[n+](CC(=O)c3ccc(Cl)cc3)c3n2CCCCC3)c1.[Br-] | < 0 | 169
14 | O=[N+]([O-])c1ccc(CN2CCN(c3ccc(F)cc3)CC2)o1 | < 0 | 245
15 | O=C(N/N=C/c1c(F)c(F)c(F)c(F)c1F)c1cccc(S(=O)(=O)N2CCOCC2)c1 | 128 | 45.4
16 | CCC(C)N1CCC2(CC1)N=c1c3c(O)c4c(O)c(C)c5c(c4c1=N2)C(=O)[C@@](C)(OC=C[C@H](OC)[C@@H](C)[C@@H](OC(C)=O)[C@H](C)[C@H](O)[C@H](C)[C@@H](O)[C@@H](C)C=CC=C(C)C(=O)N3)O5 (some centres not stated) | 86.3 | 253
17 | CN1/C(=C/C(=O)c2cccs2)Sc2ccccc21 | 48 | 139
18 | CSc1ccc(C(=O)C2CCCN(C(=O)c3ccc4c(c3)no[n+]4[O-])C2)cc1 (configuration not stated) | 64.7 | 191
19 | CCN1C(=O)/C(=C\NC2CCCC(C)C2C)SC1=S (configuration not stated) | 97.6 | 226
20 | CC1CCN(C(=O)C2COc3ccccc3O2)CC1 (configuration not stated) | < 0 | 265
21 | COc1ccc(CCNC(=O)c2c(C)nc3ccccn23)cc1 | < 0 | 198

Row | SMILES | area under cytotoxicity dose-response curve [1] | area under intracellular growth-inhibition dose-response curve [2]
22 | O=C(COC(=O)C1COc2ccccc2O1)Nc1cccc(F)c1 (configuration not stated) | < 0 | 46.1
23 | COc1ccc(-c2c(C)cc3oc(=O)cc(-c4ccccc4)c3c2C)cc1 | 33.9 | 154
24 | Cc1ccc(-c2nnc(NC(=O)c3ccc([N+](=O)[O-])o3)o2)c(C)c1 | 91.5 | 78.2
25 | Cc1[nH]c2ccccc2c1/C=N/NC(N)=S | 102 | 131
26 | CCOC(=O)c1ccccc1OCc1cc(/C=N/NC(=O)c2ccncc2)ccc1OC | 20.2 | 269
27 | CCn1c(-c2cccs2)nc2ccccc21 | 69.6 | 194
28 | CN(C)C1C(=O)C(C(N)=O)=C(O)C2(O)C(O)=C3C(=O)c4c(O)cccc4C(C)(O)C3C(O)C12 (configuration not stated) | 22.3 | 166
29 | COc1cc(C(C)=NNC(=O)c2ccncc2)ccc1O | 47.1 | 265
30 | CC(=O)OCC1=C(C(=O)O)N2C(=O)[C@@H](NC(=O)CSc3ccncc3)[C@H]2SC1.[Na+] | 52.5 | 114
31 | COc1ccc(CNc2nc3nc4c(c(O)n3n2)CCC4)cc1 | 15.2 | 140
32 | Cc1cccc(-c2nsc(SCC(=O)N3CCCC3)n2)c1 | 98 | 224
33 | CC1=CCCC(C)(C)C1/C=C/C(C)=N/NC(=O)c1ccncc1 (configuration not stated) | < 0 | 247
34 | N#Cc1ccc(C(=O)NCC2CCCCC2)cc1 | 44.2 | 107
35 | Cn1c(/C=C/c2ccc([N+](=O)[O-])o2)nc2ccccc2c1=O | 53.2 | 85.8
36 | C/C(=N\NC(=O)c1ccncc1)c1cccnc1 | 90.7 | 129
37 | O=C(NN=C(Cc1ccccc1)Cc1ccccc1)c1ccncc1 | 7.4 | 257
38 | COc1cccc2c1C(=O)c1c(O)c3c(c(O)c1C2=O)C[C@](O)(C(C)=O)C[C@H]3O[C@@H]1C[C@@H](N)[C@@H](O)[C@@H](C)O1.Cl | 172 | 44.8
39 | Cc1nn(-c2ccccc2)cc1/C=N/NC(N)=S | 24.4 | 274
40 | O=C(NC1CCCCCCC1)c1ccc(F)cc1 | 16.9 | 180
41 | O=C(NCC1CCCCC1)c1ccc([N+](=O)[O-])cc1 | 77.6 | 239
42 | COc1cc(OC)c(/C=N/NC(=O)c2ccncc2)cc1Br | 98 | 249

Row | SMILES | area under cytotoxicity dose-response curve [1] | area under intracellular growth-inhibition dose-response curve [2]
43 | CC[C@@H](C)[C@@H]1CN([C@@H](CN2CCC[C@H]2CN2C(N)=NC[C@@H]2Cc2ccccc2)C(C)C)C(=N)N1CCCC1CCCC1 | 98.8 | 83.6
44 | COc1cccc(NC(=O)NC2CCCCCCC2)c1 | 103 | 162
45 | Cc1cc(Cl)ccc1NC(=S)NCC(O)c1ccccc1 (configuration not stated) | 76.6 | 126
46 | O=C(N/N=C/c1ccc(OCc2cnc(Cl)s2)cc1)c1ccncc1 | 48.7 | 238
47 | CCCCC(=O)NCc1ccc(Cl)cc1 | 27.4 | 197
48 | O=C(NC1CCCCCCC1)c1ccc(Br)o1 | 38.5 | 251
49 | NC(=S)N/N=C/c1ccc(-c2ccc(SC(F)F)cc2)o1 | 46.9 | 271
50 | O=C(COc1ccccc1)N1CCN(c2ccccc2)CC1 | 10 | 122
51 | CO[C@H]1C=CO[C@@]2(C)Oc3c(C)c(O)c4c(O)c(c(C=NN5CCN(C)CC5)c(O)c4c3C2=O)NC(=O)C(C)=CC=C[C@H](C)[C@H](O)[C@@H](C)[C@@H](O)[C@@H](C)[C@H](OC(C)=O)[C@@H]1C | 92.8 | 275
52 | O=C(NCCC1=CCCCC1)c1ccc(F)cc1 | 3.13 | 122
53 | Cc1ccc(C(=O)NC(C)C2CC3CCC2C3)cc1 (configuration not stated) | < 0 | 267
54 | O=C(c1ccc([N+](=O)[O-])o1)N1CCN(c2nc3c(F)cc(F)cc3s2)CC1 | 161 | 20.8
55 | CC(NC(=S)Nc1ccc(OC(F)F)c(Cl)c1)C(C)(C)C (configuration not stated) | 12.4 | 198
56 | Cc1nnc(N2CCCCC2)c2ccccc12 | 15.8 | 117
57 | O=C(NCC1CCCCC1)c1ccc(Cl)nc1 | 2.72 | 258
58 | CCn1c(C)cs/c1=N/C(=O)c1ccccc1 | 25.7 | 197
59 | CC(=O)Nc1sc(N/N=C\c2ccc(O)cc2)nc1-c1cccs1 | 155 | 194
60 | Cc1ccc(-n2c(C)cc(/C=N/NC(N)=S)c2C)cc1 | 26 | 233
61 | FC(F)(Cl)c1nnc2ccc(Cl)nn12 | 26.5 | 126
